Reference: EP0015544A2, “Derivatives of the mercaptopropionamido-acetic acid, process for the preparation thereof and compositions” (ZAMBON S.p.A., priority 1979, dated 1980)

Legend:
in vivo = conditions: ip, i.p. administration in the mouse, buffered with sodium bicarbonate at pH 6, read-out: DL50 (the source's name)
[1] = tested on: bronchial ipersecretion induced with S02; experiment: bronchial hypersecretion induced with SO2 in rats; format: in vivo; conditions: oral, two weeks, 0.5 g/kg/die (esters: equivalent to 0.5 g/kg/die of free acid); 300 ppm SO2 two hours a day, total 90 hours; untreated animals 80%
Description: Under the same experimental conditions in tests carried out with Carbocysteine at the same dose (0.5 g/kg/die) the percentage of the non protected animals was 25%.

[2] = tested on: mucins of the fibrillar reticulum; experiment: glycopeptide analysis of bronchial mucus from orally treated patients; format: in vivo; conditions: comparative test, 70 mg/kg/die
Method: The analysis of the glycopeptides of the bronchial mucus obtained by hydrolysis with papaine (24 hours at 37°C, pH 6.5) followed by pronasis (24 hours at 37°C at pH 7.3) and fractionation by electrophoresis on agarose at pH 8.6 and finally chromatografy on DEAE -Sephadex A/25 column has shown an average increasing of about 100% of the sialoglycopeptides (hydrophil- ics) with a reduction higher than 60% of the weakly acid glycopeptides and neutral mucins (hydrophobics) followed by lowering of the viscosity.

[3] = tested on: intrabronchial desquamation and the reactive mucousa iperplasye; experiment: CCl nebulization in rats, bronchial desquamation and mucosal hyperplasia; format: in vivo; conditions: oral 0.5 g/kg/die (esters: equivalent to 0.5 g/kg/die of the acid); nebulization 10 days, 5 nebulizations for 2 minutes a day

Row | SMILES | LD50 (in vivo) | bronchial obstruction, percentage of treated (non protected) animals [1] | average increasing of the sialoglycopeptides [2] | decreasing of the glycopeptides and mucins [2] | hindering of the intrabronchial desquamation and the reactive mucousa iperplasye [3]
1 | CC(SCC(=O)O)C(=O)NCC(=O)O (stereo not shown) [S-carboxymethyl-propionyl-glycine] | 5420 mg/kg |  |  |  | 
2 | O=C(O)CNC(=O)CCSCC(=O)O [beta-(S-carboxvmethvl)-propionvl-qlvcine] | 5500 mg/kg |  |  |  | 
3 | N[C@@H](CSCC(=O)O)C(=O)O [Carbocysteine] | 5180 mg/kg | 25% | ≤ 75% | ≤ 45% | ≤ 40%
